In patent publication US20210346368A1, “ANTIBIOTIC SOLUTION AND METHOD OF INJECTION TO PREVENT OPHTHALMIC INFECTIONS” (priority 2017, published 2021):

Test: injection of moxifloxacin antibiotic solution into the anterior segment of the eye during surgery to prevent endophthalmitis
Assay type: in vivo
Procedure: Further details regarding the structure, preparation, and physical properties of moxifloxacin are provided in U.S. Pat. Nos. 4,990,517 and 5,607,942, and German application DE19937116, all of which are incorporated herein by reference. In one embodiment, the antibiotic solution may comprise […] of cyanocobalamin, or an amount sufficient to tint or color the resulting antibiotic solution. The antibiotic solution may further comprise any suitable carrier fluid (e.g., liquid diluents such as water, ethyl alcohol, or propylene glycol), so long as the resulting solution has osmotic values that are compatible with the aqueous humor of the eye and ophthalmic tissues. In one embodiment, the antibiotic solution is prepared and stored in a single-dose vial, without the need for preservatives. This allows the surgeon to provide an accurate concentration in sterile environments. Further, due to the antibiotic solution comprising cyanocobalamin, the resulting antibiotic solution is red in color. This provides a visual enhancement to the surgeon when injecting into the eye. For example, a surgeon would inject around 0.3 milliliters of the antibiotic solution (e.g., solution comprising moxifloxacin and cyanocobalamin) into the anterior segment of the eye during the intraoperative portion of cataract surgery. […]

**Q.** What does the source list for COc1c(N2C[C@@H]3CCCN[C@@H]3C2)c(F)cc2c(=O)c(C(=O)O)cn(C3CC3)c12 [moxifloxacin]?
**A.** effectiveness (preliminary results) (200 micrograms to 600 micrograms of moxifloxacin injected into the eye): effective; risk of endophthalmitis (moxifloxacin injected into the anterior segment of the eye): significantly reduced or eliminated altogether
